In the METLIN SMRT retention time set (Domingo-Almenara et al. 2019):

Test: gradient 5% acetonitrile 3 min, to 50% in 2 min, to 85% in 15 min, held 3 min, 100 µL/min
Details: column: Zorbax Extend-C18 2.1 x 50 mm; eluents: water / acetonitrile, 0.1% formic acid
Summary of the method: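 The system's dead and dwell volumes were 40 μL and 900 μL, with a Zorbax Extend-C18 column (2.1 × 50 mm, 1.8 μm) run at 100 μL/min in water and acetonitrile containing 0.1% formic acid each. Pure standards were analyzed in mixtures of ~100 molecules by HPLC–quadrupole time-of-flight mass spectrometry in positive and negative ionization mode. Retention time was assigned from computationally picked, manually inspected adduct peaks.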

RP-LC retention time	Compound
903 s	Cc1ccc2c(c1)cc(S(=O)(=O)c1ccccc1)c(=O)n2CC(=O)NC1CCCC1
1330 s	CCCc1ccc(S(=O)(=O)N2CCC(F)(c3nc(CC(C)C)no3)CC2)cc1
840 s	COc1cccc(CNC(=O)Nc2cc3c(cc2Oc2ccccc2)n(C)c(=O)n3C)c1
692 s	Cc1ccn2cc(-c3ccc(NC(=O)Nc4cccc(Cl)c4)cc3)nc2n1
1240 s	Cc1ccc(-c2csc(NC(=O)c3ccc(C)c(C)c3)n2)cc1
572 s	C=CCNc1nnc(SCC(=O)N2CCC(C(N)=O)CC2)s1
1170 s	Cn1cc2c3c(cccc31)CN(C(=O)Nc1cc(Cl)ccc1Cl)CC2
799 s	O=C(C1CC1)N1CCc2sc(S(=O)(=O)Nc3ccc(F)cc3)cc2C1
679 s	CS(=O)(=O)c1ccc2nc(NC(=O)c3ccc([N+](=O)[O-])o3)sc2c1
808 s	Cc1ccc(-n2c(N3CCC(C(=O)NCC4CC4)CC3)nc3ccsc3c2=O)cc1
896 s	O=C(NCc1ccc(Cl)cc1)c1ccc(NC(=O)C2CCC2)cc1N1CCOCC1
1300 s	Cc1ccc(C2Cn3nnc(-c4nc(-c5ccc(C(F)(F)F)cc5)no4)c3CO2)c(C)c1 (configuration not stated)
671 s	CC(C)CCC(=O)N1CCN(c2nc(CN3CCC(C)CC3)cs2)CC1
620 s	COc1ccc(OC)c(CN2CCn3c(nn(CC4CC4)c3=O)C2)c1
830 s	CCCn1cc(CCNS(=O)(=O)c2ccccc2C)c2cccnc21
817 s	Cc1cc2c(cc1S(=O)(=O)N1CCCC1C(=O)Nc1cccc(Cl)c1)OCC(=O)N2 (configuration not stated)
972 s	O=C(NC1CC1)C1CCCN(S(=O)(=O)c2cc(-c3noc(C4CCCC4)n3)cs2)C1 (configuration not stated)
868 s	Cc1ccc(NC(=O)Cn2c(=O)n(-c3ccccc3)c(=O)c3c2cc(C)n3C)cc1F
772 s	CC(C)(C)c1cc(NC(=O)CSCc2ccccc2)n(CCO)n1
1150 s	CC(C)(C)c1cc(C(=O)NC2CCCC2)nc2ccnn12
723 s	O=C(NCCC1=CCCCC1)C1CCCN(C(=O)c2cc(-c3ccccn3)n[nH]2)C1 (configuration not stated)
772 s	CCC(=O)c1ccc2c(c1)N(CCCN(C)C)c1ccccc1S2

RP-LC retention time	Compound
672 s	O=C(c1nc2nc(-c3cccs3)cc(C(F)(F)F)n2n1)N1CCN(c2ccccn2)CC1
967 s	CCc1cc(=O)n(CC(=O)Nc2cc(OC)ccc2OC)c(N2CCOCC2)n1
767 s	Cc1ccc(C)c(NC(=O)N2CCC(N3CCN(Cc4cccc(F)c4)C(=O)C3=O)CC2)c1
586 s	Cc1cc(C(=O)N2CCC(N3CCCCC3)CC2)c2cc(Br)ccc2n1
880 s	COc1ccc2[nH]cc(CCNC(=O)c3cc(S(=O)(=O)N4CCSCC4)ccc3Cl)c2c1
610 s	CN(Cc1cc(C(F)(F)F)ccc1Cl)C1CCc2nn(C)c(=O)n2CC1 (configuration not stated)
945 s	Cc1ccc(Cl)cc1NC(=O)NC(C)C(=O)N1CCc2ccccc21 (configuration not stated)
743 s	Cc1cc(C)c(S(=O)(=O)Nc2cccc(-c3cn4cccc(C)c4n3)c2)cc1C
926 s	Nc1ccc(C(=O)Oc2ccc([N+](=O)[O-])cc2)cc1
839 s	O=C(c1ccc2c(c1)OCCO2)N1CCCCC1
995 s	CCn1cc(-c2nc(C)c(C(=O)NCc3ccccc3C)s2)c2cccnc21
657 s	CCOC(=O)N1CCN(C(=O)CSc2ccc(-n3cccn3)nn2)CC1
741 s	O=C(Cn1nc(-c2cccs2)ccc1=O)Nc1nc2c(s1)CCCC2
949 s	Cc1cc(C)cc(Nc2nc(C)cc3nn(CC(=O)NC(C)C)c(=O)n23)c1
782 s	Cn1cc(S(=O)(=O)N2CCC(C(=O)N3CCc4ccccc4C3)CC2)cc1C(=O)N1CCCC1
1260 s	Cc1nn(-c2nc(-c3ccc(Cl)cc3)cs2)c(C)c1CC(=O)N1CCCCC1
821 s	O=C(c1cccs1)N1CCC2(CC1)NC(=O)N(Cc1ccccc1Cl)C2=O
1000 s	O=C(CC1=CCCCC1)N1CC(F)(F)C[C@H]1c1nc(C2CC2)no1
651 s	Cc1nn(C)c(C)c1CCNC(=O)Nc1ccccc1Br
951 s	Cc1ccc(S(=O)(=O)Cc2nc(-c3ccc4c(c3)OCO4)no2)cc1
576 s	COc1ccc2[nH]c3c(c2c1)CCNC31CCN(C(=O)C2CCN2C2CCCCC2)CC1 (configuration not stated)
687 s	COc1ccc(-c2c(C)noc2NC(C)=O)cc1S(=O)(=O)Nc1cc(OC)c(OC)c(OC)c1

RP-LC retention time	Compound
562 s	COc1cccc(-c2cc3n(n2)C(NC2CC2)CNC3=O)c1 (configuration not stated)
568 s	O=C(CC1CCCCN1S(=O)(=O)c1ccc(Cl)cc1)NCc1cccnc1 (configuration not stated)
694 s	COc1ccc(-c2ncccc2CNS(=O)(=O)Cc2cc(F)cc(F)c2)cc1
716 s	Cc1oc(C2CCN(C(=O)Cc3ccccc3Cl)CC2)nc1C(=O)N1CCOCC1
676 s	CCCN1CCN(C(=O)C2=NN(c3ccc(Cl)cc3)c3ncccc3S2(=O)=O)CC1
904 s	COc1cc(Cc2nc(-c3cccc(-c4ccnn4C)c3)no2)cc(OC)c1
729 s	CCc1ccccc1NS(=O)(=O)c1cc(-c2[nH]ncc2C(=O)N(C)C)oc1C
775 s	Cc1nc2ccc(Cl)cn2c(=O)c1NC(=O)Cc1ccc(-c2ccccc2)cc1
559 s	O=C(NC1CC1)c1nc(C(=O)N2CCN(c3ccccn3)CC2)cs1
817 s	CCS(=O)(=O)c1ccc2c(c1)N(Cc1nc(-c3ccc(OC)c(OC)c3)no1)C(=O)CO2
1080 s	CCOc1ccccc1NC(=O)C1CCCN(S(=O)(=O)c2ccc(OC)c(C)c2)C1 (configuration not stated)
859 s	O=C(Cc1cccs1)N1CCC2(CC1)N=C(c1ccc(Cl)cc1)NO2
917 s	CCC1Oc2ccc(S(=O)(=O)N3CCC(C(=O)N4CCc5ccccc54)CC3)cc2NC1=O (configuration not stated)
784 s	O=C(NCc1ccc(F)cc1F)C1CCN(C(=O)c2ncn3c2COC(c2ccccc2)C3)CC1 (configuration not stated)
888 s	O=C(NCc1ccco1)c1ccccc1-c1nc(-c2ccccc2)no1
655 s	O=C(Cn1ccn(-c2ccc3c(c2)OCCO3)c(=O)c1=O)Nc1ccccc1F
661 s	Cc1cc(C(=O)N2CCC(c3noc(-c4ccncc4)n3)C2)nn1C (configuration not stated)
848 s	COc1ccc(NC(=O)c2cn(C)nc2S(=O)(=O)N2CCSCC2)cc1
744 s	Cc1ccc(Nc2c(-c3ccccc3O)nc3ncccn23)c(C)c1
673 s	Cc1ccccc1NS(=O)(=O)c1cc(-c2[nH]ncc2C(=O)N(C)C)oc1C
751 s	Cc1ccc(NC(=O)N2CCC(N3CCN(Cc4ccc(F)cc4)C(=O)C3=O)CC2)c(C)c1
604 s	CN(C)c1ccc(CCCNC(=O)Cc2ccc(Cl)cc2)cc1

RP-LC retention time	Compound
812 s	CCCN1C(=O)c2c(C(=O)NCc3ccccc3F)ncn2CC1(C)C(=O)NCc1ccccc1 (configuration not stated)
775 s	COCc1nn(CC2CC2)c2c1CN(C(=O)c1ccc(C)s1)CC2
1080 s	COc1ccc(Cn2c(=O)c3sccc3n(Cc3nc(-c4ccc(F)cc4)no3)c2=O)cc1
806 s	COc1ccccc1NC(=O)N1CCC2(CC1)NC(=O)c1cc(Cl)ccc1N2C
818 s	COc1cc(CNC(=O)CCC(=O)N2CC3CCCN3c3ccccc32)cc(OC)c1OC (configuration not stated)
1080 s	Cc1nc(C)c(C(=O)N2CC(F)(F)C[C@H]2COc2ccc3c(c2)CCC3)s1
832 s	COc1ccc(-c2nc3ccc(Cl)cn3c2Nc2ccccc2C)cc1
1230 s	Fc1ccccc1Cn1cccc1-c1nc(-c2ccc3c(c2)OCO3)no1
1070 s	COc1ccc(C2CC(=O)c3c([nH]c(C(=O)OC4CCCCC4)c3C)C2)cc1OC (configuration not stated)
551 s	Cc1ccn2cc(C(=O)NCCc3ccc(S(N)(=O)=O)cc3)nc2c1
554 s	CCc1cc(=O)n(Cc2ncc(C)c(OC)c2C)c(N2CCCC2)n1
711 s	CCN1C(=O)c2cccnc2Sc2cc(CNC(=O)c3ccc(OC)c(OC)c3)ccc21
819 s	CCn1ccc(C(=O)N2CC(Oc3ccc(-c4nc(C)no4)cc3)C2)n1
644 s	CC(=O)N1CCc2nn(CC(=O)Nc3ccc(F)c(F)c3)c(=O)cc2C1
980 s	CCn1cc(-c2nc(C)c(C(=O)Nc3ccccc3C)s2)c2cccnc21
590 s	O=C(c1ccc2ccccc2n1)N1C[C@@H](CO)[C@H](c2ccccn2)C1
781 s	O=C(Cc1ccsc1)NCCn1c(=O)n(Cc2ccc(F)cc2)c2cccnc21
656 s	Cc1noc(C)c1Cc1ccc(C(=O)N2CCC(N3C[C@H](O)C[C@H]3C(=O)NC3CCCCC3)CC2)o1
798 s	COc1ccc(Cl)cc1NC(=O)N1CCN(c2cc(C)nc(Nc3ccc(C)cc3)n2)CC1
969 s	O=C(Nc1ccc(F)cc1F)c1ccc(Br)cc1F

Compound	RP-LC retention time
COc1ccc2c(c1)C1(CCN(C(=O)Cc3ccc(C)cc3)C1)C(=O)N2C (configuration not stated)	854 s
